For data set [1], the system named is CXCL16. Put plainly: CXCL16 shedding inhibition in HTSMC. Format: cell-based, human. To be noted: for CXCL16 shedding inhibition: HTSMC, 10 μM; for inhibition at 10 µM: Homo sapiens, read-out: CXCL16 shedding inhibition.
Data set [2] relates to Heregulin. Description: Inhibition of heregulin shedding in A549 cells. The format is cell-based. The settings on record: for inhibition at 40 µM: Homo sapiens, A549, read-out: Heregulin shedding inhibition.
Data set [3] deals with betacellulin. Put plainly: Inhibition of betacellulin shedding in A549 cells. To be noted: for inhibition at 40 µM: Homo sapiens, A549, read-out: BTC (betacellulin) shedding inhibition. The format is cell-based.
For data set [4], the system named is TGFα. Put plainly: Inhibition of TGFα shedding in A549 cells. Format: cell-based. To be noted: for inhibition at 40 µM: Homo sapiens, A549, read-out: TGFα shedding inhibition.
Data set [5] deals with zinc metalloproteinases. Put plainly: Selectivity testing against extended panel of zinc metalloproteinases. The format is biochemical. To be noted: ADAM17 versus five other metzincins.
In data set [6] the test system is HEPG2 cells. Description: CellTiter Glo cell viability assay. The settings on record: 72 h, up to 33 μM. Format: cell-based.
For data set [7], the system named is Notch. The settings on record: SKMEL-28, 25 μM; ref Personal communication from Dr. Kaushik (Kansas University Medical Center); cited from earlier work.
Data set [8] concerns MDA-MB-231 cells. Description: CellTiter Glo cell viability assay. The format is cell-based. To be noted: 72 h, up to 33 μM. A general note: In ATP-based viability assays light output follows the ATP content of the culture.
The subject of data set [9] is A549 cells. Description: Synergy studies, A549 viability assay.
Data set [10] deals with wtPTK7. Put plainly: Inhibition of PTK7 shedding in SW480 cells. The format is cell-based.
For data set [11], the target named is ADAM10 (Homo sapiens, UniProt O14672). Description: ADAM10 glycosylated substrate assay. The format is biochemical.
Data set [12] has as its system A549 cells. Description: CellTiter Glo cell viability assay. The format is cell-based. The settings on record: 72 h, up to 33 μM.
In data set [13] the test system is L622D-PTK7. Put plainly: Inhibition of PTK7 shedding in HT1080-L622D cells. Format: cell-based, human.
The test system of data set [14] is HT1080 cells. Description: Transwell invasion assay. To be noted: Matrigel. Format: cell-based, human.
Data set [15] has as its target MMP9 (Homo sapiens, UniProt P14780). Description: MMP assay. Format: biochemical.
In data set [16] the test system is TNFα. Put plainly: Inhibition of TNFα shedding in THP-1 cells. Format: cell-based. To be noted: Homo sapiens, THP-1, read-out: TNFα shedding inhibition.
In data set [17] the target is MMP8 (Homo sapiens, UniProt P22894). Put plainly: MMP assay. Format: biochemical.
The target of data set [18] is ADAM17 (Homo sapiens, UniProt P78536). Put plainly: ADAM17 glycosylated substrate assay. Format: biochemical.
Data set [19] deals with MMP14 (Homo sapiens, UniProt P50281). Put plainly: MMP assay. Format: biochemical.
For data set [20], the target named is MMP2 (Homo sapiens, UniProt P08253). Put plainly: MMP assay. Format: biochemical.
Data set [21] deals with EGFR ligand (heregulin, TGFα, HB-EGF, amphiregulin, and EGF). To be noted: cited from earlier work.
Data set [22] relates to PTK7. The settings on record: cited from earlier work.
The subject of data set [23] is HT1080 cells. The settings on record: cited from earlier work.

Where two headings read alike, the source gives them in different places.

ADAM17, sequence (P78536 215-824): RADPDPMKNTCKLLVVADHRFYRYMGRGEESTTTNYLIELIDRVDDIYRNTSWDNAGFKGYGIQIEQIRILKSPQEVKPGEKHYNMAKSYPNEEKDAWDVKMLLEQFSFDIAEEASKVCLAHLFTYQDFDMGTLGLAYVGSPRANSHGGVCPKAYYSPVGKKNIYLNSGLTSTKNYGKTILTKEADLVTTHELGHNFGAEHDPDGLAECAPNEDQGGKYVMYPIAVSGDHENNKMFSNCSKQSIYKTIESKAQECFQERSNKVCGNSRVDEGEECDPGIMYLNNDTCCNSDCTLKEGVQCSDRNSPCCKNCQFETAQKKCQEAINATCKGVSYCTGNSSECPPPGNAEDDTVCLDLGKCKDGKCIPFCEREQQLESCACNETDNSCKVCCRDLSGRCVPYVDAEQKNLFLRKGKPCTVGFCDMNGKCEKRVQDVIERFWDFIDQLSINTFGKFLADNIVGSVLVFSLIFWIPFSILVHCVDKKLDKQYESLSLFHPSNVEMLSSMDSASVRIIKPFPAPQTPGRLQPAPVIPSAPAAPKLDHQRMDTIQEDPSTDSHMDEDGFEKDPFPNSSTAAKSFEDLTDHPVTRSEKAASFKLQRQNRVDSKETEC
ADAM10, sequence (O14672 214-748): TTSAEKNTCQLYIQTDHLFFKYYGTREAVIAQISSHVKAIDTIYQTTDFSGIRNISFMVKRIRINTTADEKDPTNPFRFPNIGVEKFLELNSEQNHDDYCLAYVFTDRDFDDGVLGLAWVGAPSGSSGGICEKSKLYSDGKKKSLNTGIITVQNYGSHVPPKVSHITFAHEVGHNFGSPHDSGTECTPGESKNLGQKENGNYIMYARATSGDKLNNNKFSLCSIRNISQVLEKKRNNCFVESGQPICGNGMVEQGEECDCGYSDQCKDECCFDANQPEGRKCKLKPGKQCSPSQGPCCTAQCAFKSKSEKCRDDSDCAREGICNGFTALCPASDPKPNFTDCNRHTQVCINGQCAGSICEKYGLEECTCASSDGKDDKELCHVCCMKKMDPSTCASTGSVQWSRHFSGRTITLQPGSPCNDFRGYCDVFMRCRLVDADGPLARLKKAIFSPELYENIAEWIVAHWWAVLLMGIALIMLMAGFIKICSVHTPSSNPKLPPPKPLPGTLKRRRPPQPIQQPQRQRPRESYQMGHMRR
MMP2, sequence (P08253 110-660, species assumed): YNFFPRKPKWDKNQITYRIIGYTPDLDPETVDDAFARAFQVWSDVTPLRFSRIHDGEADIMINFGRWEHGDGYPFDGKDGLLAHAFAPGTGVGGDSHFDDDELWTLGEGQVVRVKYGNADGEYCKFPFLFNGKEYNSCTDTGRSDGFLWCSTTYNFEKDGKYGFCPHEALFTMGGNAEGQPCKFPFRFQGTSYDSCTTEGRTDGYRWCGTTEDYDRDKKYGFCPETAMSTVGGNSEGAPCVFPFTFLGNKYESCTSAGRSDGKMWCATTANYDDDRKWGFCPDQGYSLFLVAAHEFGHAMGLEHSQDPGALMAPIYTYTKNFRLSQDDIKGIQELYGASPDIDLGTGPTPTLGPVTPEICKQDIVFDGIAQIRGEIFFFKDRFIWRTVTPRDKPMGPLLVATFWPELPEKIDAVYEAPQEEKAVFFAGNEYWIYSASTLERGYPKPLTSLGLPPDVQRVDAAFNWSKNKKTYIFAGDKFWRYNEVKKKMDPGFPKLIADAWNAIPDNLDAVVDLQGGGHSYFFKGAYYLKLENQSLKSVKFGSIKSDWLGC
MMP9, sequence (P14780 94-707, species assumed): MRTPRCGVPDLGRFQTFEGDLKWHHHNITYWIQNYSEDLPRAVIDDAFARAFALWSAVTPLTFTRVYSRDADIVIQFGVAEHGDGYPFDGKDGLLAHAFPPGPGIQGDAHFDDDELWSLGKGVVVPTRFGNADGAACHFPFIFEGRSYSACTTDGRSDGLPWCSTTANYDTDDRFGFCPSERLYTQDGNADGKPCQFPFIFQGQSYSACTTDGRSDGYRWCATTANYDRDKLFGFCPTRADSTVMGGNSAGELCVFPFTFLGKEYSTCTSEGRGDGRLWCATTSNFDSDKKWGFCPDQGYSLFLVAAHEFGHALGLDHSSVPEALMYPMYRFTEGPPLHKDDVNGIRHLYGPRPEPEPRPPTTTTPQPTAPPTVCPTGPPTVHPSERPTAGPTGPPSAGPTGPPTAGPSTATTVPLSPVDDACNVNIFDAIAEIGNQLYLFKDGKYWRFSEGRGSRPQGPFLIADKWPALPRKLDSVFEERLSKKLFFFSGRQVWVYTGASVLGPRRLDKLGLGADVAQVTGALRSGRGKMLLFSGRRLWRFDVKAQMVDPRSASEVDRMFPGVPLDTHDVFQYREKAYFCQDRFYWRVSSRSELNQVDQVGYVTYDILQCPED
MMP8, sequence (P22894 101-467, species assumed): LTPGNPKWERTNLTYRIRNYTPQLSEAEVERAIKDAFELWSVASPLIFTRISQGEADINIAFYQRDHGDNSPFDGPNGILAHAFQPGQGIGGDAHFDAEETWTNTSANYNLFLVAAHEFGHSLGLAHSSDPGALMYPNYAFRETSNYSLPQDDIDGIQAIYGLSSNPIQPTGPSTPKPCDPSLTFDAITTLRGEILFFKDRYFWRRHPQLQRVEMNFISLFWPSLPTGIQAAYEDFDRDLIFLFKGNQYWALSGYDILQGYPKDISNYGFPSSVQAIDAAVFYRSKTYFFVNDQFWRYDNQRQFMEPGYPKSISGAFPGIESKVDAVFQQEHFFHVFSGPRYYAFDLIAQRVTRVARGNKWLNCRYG

Take `CCCC[C@H]1CN([C@@H](Cc2ccc(O)cc2)CN2CCC[C@H]2CN2C(=O)C(=O)NC[C@H]2Cc2ccc3ccccc3c2)C(=O)C(=O)N1CCC12CC3CC(CC(C3)C1)C2` [Compound 16, (S)-4-(2-(Adamantan-1-yl)ethyl)-5-butyl-1-((S)-1-(4-hydroxyphenyl)-3-((S)-2-(((R)-6-(naphthalen-2-ylmethyl)-2,3-dioxopiperazin-1-yl)methyl)pyrrolidin-1-yl)propan-2-yl)piperazine-2,3-dione]: the CXCL16 shedding inhibition entry in data set [1] is on record as “did not inhibit”. In addition, in [1], the inhibition (in general, the drop in the measured response relative to a control, in per cent) at 10 µM was 0%. Further, the inhibition at 40 µM in [2], in [3] and in data set [4] was 0% throughout. For the same compound, in [5], the selectivity profile result is reported as “inhibiting only ADAM17”.
Take `O=C1NC[C@@H](Cc2ccc(O)cc2)N(C[C@@H]2CCCN2C[C@@H](Cc2ccc3ccccc3c2)N2C[C@H](Cc3ccc(O)cc3)N(CCC34CC5CC(CC(C5)C3)C4)C(=O)C2=O)C1=O` [Compound 17, (5R)-4-(2-((1R,3R)-Adamantan-1-yl)ethyl)-5-(4-hydroxybenzyl)-1-((2R)-1-(2-(((R)-6-(4-hydroxybenzyl)-2,3-dioxopiperazin-1-yl)-methyl)pyrrolidin-1-yl)-3-(naphthalen-2-yl)propan-2-yl)piperazine-2,3-dione]: the “viability of HEPG2 cells” value in [6] is “did not inhibit viability”. Besides, the CXCL16 shedding inhibition entry in data set [1] was “did not inhibit”. The inhibition at 10 µM in data set [1] came out at 0%. The Notch shedding inhibition in data set [7] is given as 0%. Moreover, the Heregulin shedding inhibition entry in [2] (A549, PMA, 40 μM) is “completely inhibited shedding”. Moreover, the inhibition at 40 µM was 100% in [2], 0% in data set [3] and 0% in [4]. Also, the “viability of MDA-MB-231 cells” value in [8] was “did not inhibit viability”. Besides, in data set [9] (40 μM compound 17), the “potentiation of gefitinib activity against A549 cells” value is reported as “potentiated gefitinib activity”. The “potentiation of doxorubicin activity” value in data set [9] (A549, 40 μM compound 17) is “did not potentiate the activity”. Also, the “potentiation of etoposide activity” value in data set [9] (A549, 40 μM compound 17) is given as “did not potentiate the activity”. Further, in [4] (A549, up to 100 μM), the “shedding of TGFα” value was “did not affect shedding”. The PTK7 shedding inhibition in [10] (SW480 (wtPTK7), PMA, 25–100 μM) was 0–82%; in data set [13] (HT1080 (L622D-PTK7), PMA, 25–100 μM), 25–50%. For the same compound, the “shedding of wtPTK-7” value in data set [10] (SW480, PMA stimulated, 50 and 100 μM) is “inhibited shedding”. For the same compound, the “ADAM10 IC50” value in [11] (Table 4 selectivity panel) is recorded as “did not inhibit”. Besides, the “viability of A549 cells” value in data set [12] is on record as “no intrinsic activity”. Moreover, the “shedding of L622D-PTK7” value in data set [13] (HT1080-L622D, PMA stimulated, 50 and 100 μM) is reported as “inhibited shedding”. In data set [14], the “invasion of HT1080 cells” value is reported as “dose-dependent inhibition of invasion”.
`O=C1NC[C@H](Cc2ccccc2)N(C[C@@H]2CCCN2C[C@@H](CC2CCCCC2)N2C[C@H](Cc3ccc(O)cc3)N(CCc3ccccc3)C(=O)C2=O)C1=O` [Compound 18, (S)-1((R)-1((S)-2-(((S)-6-Benzyl-2,3-dioxopiperazin-1-yl)methyl)-pyrrolidin-1-yl)-3-cyclohexylpropan-2-yl)-5-(4-hydroxybenzyl)-4-phenethylpiperazine-2,3-dione]: the “viability of HEPG2 cells” value in data set [6] is given as “did not inhibit viability”. In data set [1], the CXCL16 shedding inhibition result is “did not inhibit”. Besides, in data set [1], the inhibition at 10 µM is 0%. Further, the inhibition at 40 µM in [2], in data set [3] and in data set [4] was 0% in each case. Besides, in [8], the “viability of MDA-MB-231 cells” value is on record as “did not inhibit viability”.
On to `O=C1NC[C@H](Cc2ccccc2)N(C[C@@H]2CCCN2C[C@H](Cc2ccccc2)N2C[C@H](Cc3ccc(O)cc3)N(CCC34CC5CC(CC(C5)C3)C4)C(=O)C2=O)C1=O` [Compound 20, (S)-4-(2-(Adamantan-1yl)ethyl)-1-((S)-1-((S)-2-(((S)-6-benzyl-2,3-dioxopiperazin-1-yl)methyl)pyrrolidin-1-yl)-3-phenylpropan-2-yl)-5-(4-hydroxybenzyl)piperazine-2,3-dione], for which the “viability of HEPG2 cells” value in data set [6] was “did not inhibit viability”. Besides, the CXCL16 shedding inhibition result in data set [1] is “did not inhibit”. The inhibition at 10 µM in data set [1] was determined as 0%. The inhibition at 40 µM in data set [2], in data set [3] and in data set [4] was 0% in each case. The “viability of MDA-MB-231 cells” value in data set [8] was “did not inhibit viability”. For the same compound, the selectivity profile entry in [5] is reported as “inhibiting only ADAM17”.
`O=C1NC[C@H](Cc2ccccc2)N(C[C@@H]2CCCN2C[C@@H](CC2CCCCC2)N2C[C@H](Cc3ccccc3)N(CCc3ccccc3)C(=O)C2=O)C1=O` [Compound 21, (S)-5-Benzyl-1-((R)-1-((S)-2-(((S)-6-benzyl-2,3-dioxopiperazin-1-yl)methyl)pyrrolidin-1-yl)-3-cyclohexylpropan-2-yl)-4-phenethylpiperazine-2,3-dione]: the IC50 (commonly the concentration at which inhibition is half-maximal) is over 100 µM in [15]; over 100 µM in [17]; 8.5 µM in data set [18]; over 100 µM in data set [19]; over 100 µM in data set [20]; over 100 µM in data set [11]. Also, in [16], the inhibition at 25 µM is 0%. Further, the inhibition at 40 µM in [3] and in data set [4] was 0% each time. Besides, in [18] (read-out: ADAM17 %inhibition at 100 μM), the inhibition at 100 µM was found to be 100%. In addition, the selectivity profile result in data set [5] is given as “inhibiting only ADAM17”.
On to `COC(=O)N1CC2(CC2)C[C@H](C(=O)NO)[C@H]1C(=O)N1CC=C(c2ccccc2)CC1` [INCB3619], for which the “heregulin shedding in A549 cells” value in data set [21] is “abrogation of heregulin shedding”. In [22], the “shedding of PTK7” value was “able to inhibit”. Moreover, the “invasion of HT1080 cells” value in [23] is “able to inhibit”.
In the case of `CNC(=O)[C@@H](NC(=O)[C@H](CC(C)C)[C@H](O)C(=O)NO)C(C)(C)C` [Marimastat, (2S,3R)-N4-[(1S)-2,2-dimethyl-1-[(methylamino)carbonyl]propyl]-N1,2-dihydroxy-3-(2-methylpropyl)butanediamide, reference compound], in data set [3] (A549, 10 μM), the betacellulin shedding inhibition result was “almost complete inhibition”. The “soluble TGFα in supernatant” value in [4] (A549, PMA, 10 μM) is “decreased soluble TGFα in the supernatant of A549 cells to the level of non-PMA-treated control”. Also, the “shedding of EGFR ligands (heregulin, TGFα, HB-EGF, amphiregulin, EGF)” value in data set [21] (A549 cells) is given as “inhibited shedding of each tested EGFR ligand”.

The record behind these values is PMC5420329 (Journal of medicinal chemistry, 2015).
